Earlier results, collected in publication PMC6504684 (Frontiers in Pharmacology, 2019).

System: α9α10 nAChRs, mutation α9-Asp121Leu
Details: cited from earlier work

CC(=O)OCC[N+](C)(C)C [ACh, acetylcholine]
increase of EC50: ~30 times
